{"source": "patent US6723702B2", "about": "“Use of relaxin treat diseases related to vasoconstriction” (RAS Medical, Inc., priority 2000, dated 2004)", "key": {"[1]": {"system": "ovariectomized or sham ovariectomized rats", "experiment": "Chronic infusion of rhRLX on renal function in ovariectomized or sham ovariectomized rats", "type": "in vivo, rat", "details": "day 5 of infusion 4 μg/hour; comparable in ovariectomized and sham ovariectomized rats", "text": "The details of the surgical procedures have been previously described. See, e.g., Conrad (1984) Kidney Int. 26:24-29; and Danielson and Conrad (1995) J. Clin. Invest. 96:482-490. […] The bladder catheter, a silastic-covered stainless steel cannula, was sewn into the urinary bladder with a purse-string suture and exteriorized through the ventral abdominal wall. This catheter was then plugged allowing the animal to urinate through the urethra while in her home cage. In the ovariectomized and sham ovariectomized animals, the ovaries were first ligated and then excised, or briefly manipulated, respectively, via a small incision made in the lateral abdominal wall immediately after the insertion of vascular and bladder catheters. All surgeries were conducted using aseptic technique. At least a 7-day recovery period was allowed before experimentation.\nSix female rats each were subjected either to ovariectomy or sham ovariectomy immediately after the implantation of vascular and bladder catheters. Seven days later, renal function and MAP were assessed before the insertion of osmotic minipumps containing rhRLX. On day 5 of the relaxin infusion (4 μg/hour), renal function and MAP were again determined."}, "[2]": {"system": "infarct and peri-infarct areas of the left ventricle", "experiment": "Rat LCAL model: number of venules on H & E sections", "type": "in vivo", "method": "Female Sprague Dawley rats, approximately 12-weeks of age were used. Rats were anesthetized by intraperitoneal (i.p.) injection of up to 1 ml/kg ketamine/medetomidine (6:4). Following exteriorization of the heart, the left coronary artery was ligated near its origin with a silk suture. In sham surgery control animals, the suture was placed superficially into the muscle adjacent to the coronary artery. Post-closure EKG's were monitored for S-T segment elevation in LCAL animals to confirm the outcome of ligation. Immediately following cardiac surgery, a primed mini-osmotic pump containing relaxin or vehicle (20 mM acetate, pH 5.0) was aseptically implanted into a subcutaneous (s.c.) pocket on the dorsal interscapular region. Vehicle or relaxin (0.1 mg/kg/day) was delivered as a continuous s.c. infusion for 7 or 21 days to either sham or LCAL animals. Animals were terminated on day 7 or 21, and the peri-infarct regions anterior to the scar in the left ventricle, or equivalent sites on sham surgery animals were harvested.\nThe number of venules, arterioles and capillaries in the infarct and peri-infarct areas of the left ventricle were quantified by counting individual vessels on H & E (hematoxylin and eosin) stained sections. Numbers of venules, arterioles and capillaries were determined by counting in the area of the infarct, and in the right and left junction areas between the infarcted free wall and viable myocardium. Quantitation of venules and arterioles were obtained as total number of vessels in the entire area in each of 3 H&E stained transverse sections of the heart, i.e. apical, basal and midway between apical and basal levels. Quantitation was performed by a histopathologist blinded to the treatment groups. Venules comprised the observed increases in numbers of collateral vessels post-infarction. All veins counted in high dry fields were summed to yield vessel number per level. Three levels (apical, basal, and middle) were summed for each animal to yield total number of veins. N=4-5 animals per treatment group. […]"}, "[3]": {"system": "endothelial cells", "experiment": "Other aspects of endothelial cell phenotype (collagen, metalloproteinase/TIMP-1, invasion, tube formation, chemotaxis)", "type": "cell-based", "method": "Relaxin was then assayed for the ability to induce proliferation of endothelial cells directly. Relaxin's potential mitogenic effect was tested on human primary umbilical vein, aortic, foreskin, and pulmonary endothelial cells, as well as rat aortic endothelial cells. […] Alterations in other aspects of endothelial cell phenotype that are believed to correlate with angiogenesis were also tested. Relaxin had no effect on collagen expression, judged by SDS-PAGE of ^3H-proline-labeled cellular proteins; or metalloproteinase or tissue inhibitor of metalloproteinase-1 secretion, assessed by gelatin zymography. […] Therefore, relaxin had no apparent effect directly on endothelial cells."}, "[4]": {"system": "THP-1 cells", "experiment": "THP-1 cells: secreted VEGF protein by ELISA", "type": "cell-based, human", "method": "THP-1 cells were obtained from the American Type Culture Collection (ATCC# TIB202), and grown in Iscove's medium supplemented with 10% fetal bovine serum and 2 mM L-glutamine. For experiments, THP-1 cells were cultured at 5×10^5 cells/ml in 24-well plates, treated and allowed to incubate for various times at 37° C. Conditioned media and cells were then collected, and cells removed by centrifugation at 500 g for 5 min. Media were stored at −80° C. until assayed.\nVEGF protein was quantified in an ELISA kit purchased from R & D Systems (Minneapolis, Minn.). The lower limit of sensitivity of the assay was 10 pg/ml.\nBecause macrophages are the inflammatory cells predominantly responsible for the angiogenic response that occurs during healing, a monocyte/macrophage cell line shown previously to bind relaxin with high affinity (THP-1) (Parsell et al. (1996) J. Biol. Chem. 271:27936-27941) was tested for relaxin inducibility of VEGF and bFGF. THP-1 cells were cultured in vitro, treated with relaxin (100 ng/ml) for 3 hours, and assayed for VEGF and bFGF mRNA induction. […] In order to determine whether the increase in VEGF mRNA observed following short-term relaxin treatment was reflected by an elevation in secreted VEGF protein, THP-1 cells were treated with relaxin (0.01-100 ng/ml) for 24 h, the conditioned media collected, and VEGF content in the media quantified by ELISA. […]"}}, "data": [{"substance": "rhRLX: recombinant human relaxin, identical in amino acid sequence to the product of the human H2 gene; A chain of 24, B chain of 29 amino acids", "values": [{"measurement": "effect on ERPF", "setting": "[1]", "value": "profound rise"}, {"measurement": "effect on ERVR", "setting": "[1]", "value": "fall"}, {"measurement": "effect on GFR", "setting": "[1]", "value": "profound rise"}, {"measurement": "number of venules in the infarct region", "setting": "[2]; day 7, 0.1 mg/kg/day", "value": "163±8"}, {"measurement": "number of venules (vessel number) in the infarct region", "setting": "[2]; day 21, 0.1 mg/kg/day", "value": "209±13"}, {"measurement": "number of vessels in analogous area of the left ventricle", "setting": "[2]; sham surgery", "value": "did not alter"}, {"measurement": "chemotaxis in vitro", "setting": "[3]", "value": "nor did it induce chemotaxis"}, {"measurement": "collagen expression", "setting": "[3]; SDS-PAGE of 3H-proline-labeled cellular proteins", "value": "no effect"}, {"measurement": "ability of endothelial cells to invade the substrate or to form tube structures", "setting": "[3]; Type I collagen or Matrigel substrate", "value": "no effect"}, {"measurement": "metalloproteinase or tissue inhibitor of metalloproteinase-1 secretion", "setting": "[3]; gelatin zymography", "value": "no effect"}, {"measurement": "VEGF protein secretion", "setting": "[4]; 0.01-100 ng/ml for 24 h, dose-dependent", "value": "approximately 150%"}, {"measurement": "threshold relaxin concentration required for stimulation of VEGF protein secretion", "setting": "[4]; 24 h", "value": "0.2 to 1.0", "unit": "ng/mL"}]}]}
